This note sets out measurements from patent publication US10406136B2 (priority 2013, dated 2019).

Test [1] addresses T1, neuraminidase (EC. 3.2.1.8, C. perfringens, SIGMA, N2876) (Clostridium perfringens, UniProt A0A0H2YQR1). The test is classed as biochemical. The settings on record: Lineweaver-Burk and Dixon plots.
The target of test [2] is T1, neuraminidase (EC. 3.2.1.8, C. perfringens, SIGMA, N2876). The test is classed as biochemical.

T1 sequence (A0A0H2YQR1 1-694): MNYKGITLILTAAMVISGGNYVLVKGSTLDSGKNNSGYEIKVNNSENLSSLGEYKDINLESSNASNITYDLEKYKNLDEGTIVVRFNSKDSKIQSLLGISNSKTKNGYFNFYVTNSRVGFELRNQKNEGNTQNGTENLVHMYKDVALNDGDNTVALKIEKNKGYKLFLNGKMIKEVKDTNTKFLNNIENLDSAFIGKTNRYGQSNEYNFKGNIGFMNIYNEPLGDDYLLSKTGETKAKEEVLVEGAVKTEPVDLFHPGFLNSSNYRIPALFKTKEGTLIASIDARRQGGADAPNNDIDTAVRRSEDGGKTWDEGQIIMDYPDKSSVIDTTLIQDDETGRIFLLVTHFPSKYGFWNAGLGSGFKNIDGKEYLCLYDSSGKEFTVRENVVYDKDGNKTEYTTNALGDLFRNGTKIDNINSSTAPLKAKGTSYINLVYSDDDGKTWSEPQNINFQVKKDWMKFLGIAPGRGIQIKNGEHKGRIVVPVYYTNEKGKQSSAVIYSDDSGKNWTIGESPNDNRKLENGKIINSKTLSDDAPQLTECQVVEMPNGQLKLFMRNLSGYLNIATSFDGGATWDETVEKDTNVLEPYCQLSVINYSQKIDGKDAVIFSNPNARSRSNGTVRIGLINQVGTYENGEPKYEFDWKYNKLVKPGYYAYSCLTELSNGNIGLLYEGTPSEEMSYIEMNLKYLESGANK

Turning to `COc1cc(C2Oc3cc(O)c(C/C=C(\C)CCC=C(C)C)c(O)c3C(=O)[C@@H]2O)ccc1O` (stereo partly shown) [Compound 1, 3′-O-methyldiplacol], in test [1], the “Inhibition (type)” value is on record as “Competitive”.
Take `COc1ccc(C2Oc3cc(O)c(C/C=C(\C)CCC=C(C)C)c(O)c3C(=O)[C@@H]2O)cc1O` (stereo partly shown) [Compound 2, 4′-O-methyldiplacol]: the “Inhibition (type)” value in test [1] was “Competitive”.
With `COc1cc(C2CC(=O)c3c(cc(O)c(C/C=C(\C)CCC=C(C)C)c3O)O2)ccc1O` (stereo not shown) [Compound 4, 3′-O-methyldiplacone], in test [1], the “Inhibition (type)” value is reported as “Competitive”.
Take `COc1ccc(C2CC(=O)c3c(cc(O)c(C/C=C(\C)CCC=C(C)C)c3O)O2)cc1O` (stereo not shown) [Compound 5, 4′-O-methyldiplacone]: half-maximal inhibition in test [2] (IC50) was put at 12.9 ± 0.4 µM. Besides, in test [1], the “Inhibition (type)” value is “Competitive”.
Consider `COc1c(O)cc(C2CC(=O)c3c(cc(O)c(C/C=C(\C)CCC=C(C)C)c3O)O2)cc1O` (stereo not shown) [Compound 6, 6-geranyl-3′,5,5′,7-tetrahydroxy-4′-methoxyflavanone], for which the “Inhibition (type)” value in test [1] is given as “Competitive”.
As to `CC(C)=CCC/C(C)=C/Cc1c(O)cc2c(c1O)C(=O)CC(c1ccc(O)cc1)O2` (stereo not shown) [Compound 7, mimulone], the “Inhibition (type)” value in test [1] is “Competitive”.
In turn, `CC(C)=CCC/C(C)=C/Cc1c(O)cc2c(c1O)C(=O)CC(c1ccc(O)c(O)c1)O2` (stereo not shown) [Compound 8, diplacone] had an IC50 in test [2] of 0.11 ± 0.003 µM. In addition, in test [1], the “Inhibition (type)” value is “Competitive”.
With `COc1cc(C2CC(=O)c3c(cc(O)c(C/C=C(\C)CCC=C(C)C)c3O)O2)cc(OC)c1O` (stereo not shown) [Compound 9, 6-geranyl-4′,5,7-trihydroxy-3′,5′-dimethoxyflavanone], the “Inhibition (type)” value in test [1] is given as “Competitive”.

A word on the IC50: it is the concentration that gives 50% inhibition.
